This is an account of results in US20160193316A1 (priority 1994, published 2016).

pIC50: −log10 of the molar value. Like-named read-outs stand apart in the source and are kept apart here. No end group written: not given here.

In one test the target is HLA-A*3101 (Homo sapiens, UniProt P04439, A270S/D185E/E176V/E277Q/F33T/G231S/G80R/H175R/I121M/I218V/I322F/K168Q/L300P/L318F/M331R/P217A/Q94H/R138Q/T323A/T345S/T97I/V358M). Description: HLA class I peptide binding assay.
The target of a further test is HLA-A*3301 (Homo sapiens, UniProt P04439, A270S/D185E/E176V/E277Q/E87N/F33T/G231S/H175R/I121M/I218V/I322F/K168Q/K210R/L300P/L318F/M331R/P217A/Q86R/Q94H/R138Q/T323A/T345S/T97I/V358M/Y195H). Description: HLA class I peptide binding assay.
Test [1] concerns HLA-A3-supertype molecules (A3, A11, A*3101, A*3301, A*6801). The test is classed as binding, human.
Another test deals with HLA-A*1101 (Homo sapiens, UniProt P04439, A114D/D185E/E176A/F33Y/L180Q/S129P/T187R). Briefly: HLA class I peptide binding assay.
In a further test the target is HLA-A*0101 (Homo sapiens, UniProt P04439, A114D/A174V/A182V/D101N/D185E/E176A/E190D/L180R/Q94H/R68K/S129P/T187R/V100A/V91M/W191G). The test is classed as binding.
The next test deals with T1, DRB1*1201 (DR5w12) (Homo sapiens, UniProt P01903+P01911, A100R/A169T/D57E/D86V/F55L/H45Y/K41T/L162R/M171V/P40S/Q125H/Q178H/Q39Y/Q99D/R42G/S66L/T262R/V114A/V67L/W38E/Y59H/Y61H/Y89S).
T1 construct: endogenous in cells; host or cells: Herluf
Briefly: HLA class II peptide binding assay. To be noted: Table XIXb; DR5w12.

For a further test, the target named is T2, DRB1*0301 (DR3) (Homo sapiens, UniProt P01903+P01911, A100K/A102G/A103R/A169T/F55Y/I96L/K41T/L162R/M171V/P40S/Q125H/Q178H/Q39Y/R42S/S66N/T106N/T262R/W38E/Y61H).
T2 construct: endogenous in cells; host or cells: MAT
Briefly: HLA class II peptide binding assay (pH 4.5).

Another test concerns the target T3, DRB1*1501 (DR2w2β1) (Homo sapiens, UniProt P01903+P01911).
T3 construct: expressed in transfected cells; host or cells: L466.1 (fibroblasts)
Description: HLA class II peptide binding assay. Conditions: Table XIXb; DR2w2β1.

For another test, the target named is T4, DRB1*1302 (DR6w19) (Homo sapiens, UniProt P01903+P01911, A100E/A169T/K41T/L162R/M171V/P40S/Q125H/Q178H/Q39Y/Q99D/R42S/S66N/T262R/V115G/W38E/Y61H).
T4 construct: endogenous in cells; host or cells: H0301
Description: HLA class II peptide binding assay. Conditions: Table XIXb; DR6w19.

A further test concerns the target T5, DRB1*0802 (DR8w2) (Homo sapiens, UniProt P01903+P01911, A100R/A103L/A169T/F76Y/H45Y/I96F/K41T/L162R/M171V/P40S/Q125H/Q178H/Q39Y/Q99D/R218S/R42G/S66Y/V115G/W38E).
T5 construct: endogenous in cells; host or cells: OLL
Description: biochemical. The test is classed as binding.

A further test addresses HLA-A*2402 (Homo sapiens, UniProt P04439, D101N/D140Y/D185E/E176V/E190D/F33S/G103R/G107R/I119L/I121M/I306V/K335N/L105A/L180Q/L300P/N151K/N90K/Q86E/Q94H/R106L/R138H/R89G/T104I/T345S/V100E/W191G/Y123F). Briefly: HLA class I peptide binding assay. To be noted: unit not given.
The next test has as its target T6, DRB1*0901 (DR9) (Homo sapiens, UniProt P01903+P01911, A100R/A103E/D57H/D86V/F55Y/F60I/F76Y/I96F/K127E/L162R/M171V/P40D/Q125H/Q99R/R33Q/R42F/S133A/S66N/T210M/V115G/W38K/Y107V/Y59G/Y89S).
T6 construct: endogenous in cells; host or cells: HID
Description: biochemical. The test is classed as binding.

For the next test, the target named is T7, DRB1*0701 (DR7) (Homo sapiens, UniProt P01903+P01911, A100R/A102G/A103Q/D57E/D86V/E43K/F76Y/K127E/L162R/M171V/P40G/Q125H/Q99D/R33Q/R42Y/R54Q/S133A/S66F/T210M/V115G/Y107V/Y59L/Y89S).
T7 construct: endogenous in cells; host or cells: Pitout
Briefly: biochemical. The test is classed as binding.

A further test deals with T8, DRB5*0101 (DR2w2β2) (Homo sapiens, UniProt P01903+Q30154).
T8 construct: expressed in transfected cells; host or cells: L416.3 (fibroblasts) or GM3107
The test is classed as binding.

A further test concerns the target T9, DRB1*0401 (DR4w4) (Homo sapiens, UniProt P01903+P01911, A100K/A169T/F76Y/I96L/K127E/L162R/M171V/N62H/P40V/Q125Y/R42H/S133A/S149N/S66Y/V115G/V209L/W38E).
T9 construct: endogenous in cells; host or cells: Preiss
Briefly: HLA class II peptide binding assay. Conditions: Table XIXb; DR4w4.

Another test deals with T10, DRB1*0405 (DR4w15) (Homo sapiens, UniProt P01903+P01911, A100R/A169T/D86S/F76Y/I96L/K127E/L162R/M171V/N62H/P40V/Q125Y/R42H/S133A/S149N/S66Y/V115G/V209L/W38E).
T10 construct: endogenous in cells; host or cells: KT3
Briefly: HLA class II peptide binding assay. Conditions: Table XIXb; DR4w15.

For the next test, the target named is T11, DRB1*0101 (DR1) (Homo sapiens, UniProt P01903+P01911, A100R/D57E/F55L/F60I/F76Y/I96L/L162R/M171V/P40L/Q125E/R42F/V115G/Y59C).
T11 construct: endogenous in cells; host or cells: LG2
Briefly: HLA class II peptide binding assay. To be noted: Table XIXb, Malaria Super Motif Peptides With Binding Data; DR1.

In a further test the target is T12, DRB1*1101 (DR5w11) (Homo sapiens, UniProt P01903+P01911, A100R/A169T/A87E/I96F/K41T/L162R/M171V/P40S/Q125H/Q178H/Q39Y/Q99D/R42S/S66Y/T262R/V115G/W38E).
T12 construct: endogenous in cells; host or cells: Sweig
Briefly: biochemical. The test is classed as binding.

In a further test the target is T13, HLA-B*0702 (Homo sapiens, UniProt P01889).
T13 construct: endogenous in cells; host or cells: GM3107
Briefly: HLA class I peptide binding assay. Conditions: Malaria B07 super motif peptides; binding value, no unit.

The target of another test is T14, HLA-A*0301 (Homo sapiens, UniProt P04439).
T14 construct: endogenous in cells; host or cells: GM3107
Briefly: HLA class I peptide binding assay. To be noted: Malaria A3 motif peptides, Table XVI; binding value to HLA-A*0301, unit not given.

The subject of another test is T helper lymphocytes. Conditions: regardless of HLA type, WO 95/07707; cited from earlier work.

Take FILVNLLIFH [Peptide 1167.46]: the pIC50 (in general, −log10 of the IC50, conventionally taken in molar units) at HLA-A*3101 is 5.71; on HLA-A*3301 it was 6.40; at HLA-A*1101, 5.88. Besides, the Alleles bound came out at 2 in test [1] (A3-supermotif CTL epitopes, five A3-supertype alleles (Table XXVII)); 2 in test [1] (A3-supertype peptides tested for binding to A*03, A*11, A*31011, A*3301, A*6801); 2 in test [1] (A3-supertype, tested on A*03, A*11, A*31011, A*3301, A*6801, unfixed parent peptide).

Take FQDEENIGIY: the “A*0101 (binding information)” value on HLA-A*0101 was determined as 1.1000.

In turn, FYFILVNLL returned a DR5w12 binding data at DRB1*1201 (DR5w12) of 0.0006. In addition, the DR3 binding data on DRB1*0301 (DR3) (Table XIXb, DR3) is on record as -0.0008. Further, on DRB1*1501 (DR2w2β1), the DR2w2β1 binding data is reported as 0.0040. Moreover, the DR6w19 binding data at DRB1*1302 (DR6w19) was 0.0003. For the same substance, the DR8w2 binding data at DRB1*0802 (DR8w2) is reported as 0.0010. On HLA-A*2402 (HLA class I binding value as printed in column headed A*201 of Table X), the HLA-A24 binding value turned out to be 7.5000. For the same substance, the “A*2401 (binding information, Malaria A24 motif peptides)” value at HLA-A*2402 (HLA-A*2401 binding value as printed) was determined as 7.5000. On DRB1*0901 (DR9), this substance displayed a DR9 binding data of -0.0003. Moreover, the DR7 binding data at DRB1*0701 (DR7) turned out to be 0.0020. The substance also had a DR2w2β2 binding data at DRB5*0101 (DR2w2β2) of 0.0044. For the same substance, the DR4w4 binding data at DRB1*0401 (DR4w4) was determined as 0.0210. Moreover, the DR4w15 binding data at DRB1*0405 (DR4w15) is -0.0009. Besides, the DR1 binding data at DRB1*0101 (DR1) worked out at 0.0029. Also, at DRB1*1101 (DR5w11), the DR5w11 binding data amounted to 0.0011.

For the substance HPSDGKCNLY, at HLA-A*0101, the “A*0101 (binding information)” value worked out at 0.0260. Besides, the “B*0702 (binding information)” value at HLA-B*0702 worked out at 0.0001.

On to LPSENERGY, for which the DR3 binding information on DRB1*0301 (DR3) (DR3a motif peptides, unit not given, exemplary 15-mer containing the core sequence) is on record as -0.0033. The “A*0101 (binding information)” value at HLA-A*0101 is listed as 0.6700. Besides, at HLA-B*0702, the “B*0702 (binding information)” value was 0,0001.

Take PSDGKCNLY: at HLA-A*0101, the “A*010I” value is on record as 0.5400 and the “A*0101 (binding information)” value worked out at 0.5400. On HLA-A*0301, the “A*0301 (binding information)” value amounted to 0.0002. At HLA-A*1101 (Table XVII, malaria A11 motif peptides, binding value unit not given), the “A*1101 binding information” value stood at 0.0002.

On to aKXVWANTLKAAa, for which the “Stimulation of T helper lymphocyte response” value with T helper lymphocytes is “stimulate the response of T helper lymphocytes from most individuals”.
